Reference: article PMC12040169 (PLOS Biology, 2025)

assay: in vitro; settings: human, hela cells, % viability

SMILES | viability at 28.5 h, 10 µM [%]
COc1ccccc1-c1ccc(CC2(C(=O)NC3CCCCC3)CCOCC2)cc1 [CBK286515] | 98.4
O=C(CSc1nnc(Cc2cccc3ccccc23)n1-c1ccccc1)NC1CCCCC1 [CBK266052] | 102
COc1ccccc1C1C(C(=O)c2sc(C)nc2C)=C(O)C(=O)N1CCCN1CCOCC1 (stereo not shown) [CBK266592] | 113
O=C(Cc1cccc(F)c1)NCCn1nc(-c2ccco2)ccc1=O [CBK283708] | 86.3
CC(=O)Nc1nc2ccc(S(=O)(=O)N3CCCC3)cc2s1 [CBK287604] | 98.8
COc1ccccc1C1(NC(=O)CCn2nccc2C)CCCC1 [CBK283628] | 89.7
O=C1c2ccccc2C(=O)N1CCc1nc2ccccc2c(=O)n1-c1nc2ccccc2s1 [CBK266358] | 122
O=C(C1=C(O)C(=O)N(Cc2cccnc2)C1c1ccncc1)c1ccc(Cl)cc1 (stereo not shown) [CBK264513] | 94.8
CCN(CC)C(=O)CCc1nc2sc3c(c2c(=O)[nH]1)CCCC3 [CBK305069] | 87.6
O=c1c(N2CCC(Sc3ccccc3)CC2)nccn1Cc1ccc(-n2cncn2)cc1 [CBK153655] | 90.9
CC(=O)Nc1ccc(-c2ccc(C(=O)NCc3cccnc3)cn2)cc1 [CBK158842] | 96.9
O=C(Nc1cccc(I)c1)c1ccc(Oc2ccc(C(=O)Nc3cccc(I)c3)cc2)cc1 [CBK261201] | 92.6
O=C(c1nccs1)C1CCN(C(=O)C2CCCCC2)CC1 [CBK284175] | 107
NC(=O)c1nc(-c2ccco2)nc2c1[nH]c(=O)n2-c1ccc(Cl)cc1 [CBK287545] | 91.2
O=C(O)c1ccc(N2C(=O)CC(N3CCC(Cc4ccccc4)CC3)C2=O)cc1 (stereo not shown) [CBK273484] | 93.4
O=C(O)c1ccc(COc2ccc(/C=C3\SC(=S)N(Cc4cccnc4)C3=O)cc2Cl)cc1 [CBK264672] | 91.9
C=C[C@H]1C[N@@]2CC[C@H]1C[C@@H]2CNS(=O)(=O)c1cccc(C#N)c1 [CBK288750] | 103
Cc1ccc(S(N)(=O)=O)cc1NC(=O)c1ccc[nH]1 [CBK050200] | 91.2
CN(CC(=O)Nc1ccccc1C(N)=O)S(=O)(=O)c1ccc(Br)cc1 [CBK268648] | 98.7
COc1ccc(-c2csc(NS(=O)(=O)c3c(C)cc(Cl)cc3Cl)n2)cc1 [CBK000814] | 104
Cc1cc(Cl)ccc1OC(C)C(=O)Nc1cc(C(=O)O)cc(C(=O)O)c1 (stereo not shown) [CBK266483] | 103
Cc1nc(SCC(=O)NCC2CCCOC2)oc1C (stereo not shown) [CBK282195] | 94.6

SMILES | viability at 28.5 h, 10 µM [%]
Nc1ncc(-c2ccccc2O)nc1-c1ccc(O)cc1 [CBK115548] | 78.5
CC(C)C(=O)N1C[C@H]2N(C)C(=O)c3ccccc3C(=O)[C@@]2(C)C1 [CBK284568] | 97.8
O=C(O)/C=C/C(=O)N(Cc1ccccn1)Cc1ccco1 [CBK286660] | 84.2
COc1ccc(-c2ccc(SCC(=O)Nc3cc(C)on3)nn2)cc1 [CBK287634] | 88.7
Cc1cc(NS(=O)(=O)c2ccc(F)cc2)n(C)n1 [CBK051021] | 108
CC(C)C(CCC(=O)Nc1ccc([N+](=O)[O-])cc1O)C(=O)O (stereo not shown) [CBK268464] | 102
CC(C)c1csc(C2CCN(C(=O)CCc3ccsc3)CC2)n1 [CBK305327] | 104
O=C(O)CCNc1cc2ccccc2cc1C(=O)O [CBK286640] | 80.7
O=C(NC(=S)Nc1ccc2[nH]c(=O)[nH]c2c1)c1ccc(OCc2ccccc2)cc1 [CBK268908] | 83.8
O=C(NCCc1nc2ccccc2[nH]1)c1cccc(Cl)c1 [CBK263514] | 100
Cc1cc(S(=O)(=O)Nc2n[nH]cc2C#N)c(C)cc1Cl [CBK044943] | 91.9
Nc1ccccc1SC(CC(=O)c1ccccc1)c1ccc2c(c1)OCO2 (stereo not shown) [CBK074823] | 80.2
COCCCn1c(=O)[nH]c2ncc(-c3cc(C(C)C)ccc3OC)nc21 [CBK064351] | 82.8
CCNC(=S)NC1CC[C@@]2(C3=CC=CC4C=CC=CC34)CCN(C)[C@H]2C1 (stereo partly shown) [CBK003596C] | 91.7
COc1ccc(C(C)C)cc1-c1cncc(N2CCN(Cc3ccccn3)CC2)n1 [CBK065792] | 88.6
CCOc1cc(/C=C2\SC(=N)NC2=O)ccc1OC(=O)c1cccs1 [CBK265510] | 107
COCCC(=O)NC(Cc1ccsc1)c1nc(C)c(C)s1 (stereo not shown) [CBK284774] | 84.7
CCCCC(=O)N(C)c1c(CC)nc2c(OCCn3cccc3)cccn12 [CBK147785] | 102
CCc1nn(CC(=O)N2CCCCC2)c(=O)c2cc3ccsc3n12 [CBK284119] | 85.7
COc1ccc(Br)cc1CN1CCN(Cc2cccc([N+](=O)[O-])c2)CC1 [CBK263347] | 91.6
Fc1ccccc1-c1nc2cnccn2c1NCc1cccs1 [CBK282332] | 90.3
CC(C)NC(=O)N1Cc2nc[nH]c2C[C@H]1C(=O)NCc1ccco1 [CBK288974] | 92.9

SMILES | viability at 28.5 h, 10 µM [%]
CCc1nn(CC(=O)N(C)C)c(=O)c2cc3oc(C)cc3n12 [CBK283576] | 114
COc1cccc2cc(C(=O)NCc3cccc4ccccc34)oc12 [CBK149800] | 78.6
CC(C)NC(=O)[C@H]1O[C@H](CCN2CCOCC2)CC[C@@H]1O [CBK288720] | 108
CC(=O)Nc1ccc(CN(CCO)C2CCc3ccccc32)cc1 (stereo not shown) [CBK304104] | 93.2
O=C(NCc1ccc(OC2CCNCC2)cc1)c1coc2c1C(=O)CCC2 [CBK038944T] | 101
Nn1cnn2c(SCc3ccccc3)nnc12 [CBK263188] | 112
O=C(Nc1ccc2[nH]ccc2c1)c1c(F)cccc1F [CBK144711] | 95.9
O=S(=O)(NCc1ccc(CNS(=O)(=O)c2ccccc2)cc1)c1ccccc1 [CBK265471] | 113
c1cnc(Oc2ccc(CN3CCCC(c4cn[nH]c4)C3)cc2)cn1 (stereo not shown) [CBK306416] | 86.6
Cc1nc2ncccn2c1-c1csc(Nc2ccc(S(N)(=O)=O)cc2)n1 [CBK263294B] | 84.8
O=C(O)CCC(=O)N1CCCC2(CCN(Cc3ccccc3)C2)C1 (stereo not shown) [CBK136890] | 97
CN(C)CCNC(=O)c1ccc(COc2ccc(Cl)cc2Cl)cc1 [CBK265878] | 90.9
Fc1cc(Cl)ccc1NC(=S)NCCN1CCOCC1 [CBK268441] | 98.4
CC1CN(C2CCN(S(=O)(=O)c3cccs3)CC2)C(=O)O1 (stereo not shown) [CBK044072] | 112
CC(=O)Nc1ccc(CN2CCCCCC2c2cc(C)no2)cc1 (stereo not shown) [CBK285415] | 101
Cc1ccc(OCCn2ccnc(N3CCNCC3)c2=O)c([N+](=O)[O-])n1 [CBK001381C] | 88.1
COc1ccc(CNc2cccc(C(=O)O)c2C)cc1OC [CBK269634] | 109
COc1ccc(Cc2nc(C(C)(C)C)cs2)cc1 [CBK021497B] | 85
CCc1ccc(OC)c(S(=O)(=O)NC2CC(C)(C)NC(C)(C)C2)c1 [CBK270098] | 101
COc1cc(/C=C2/C(=O)N(c3nnn[nH]3)N=C2C)ccc1OC(=O)c1cccs1 [CBK266641] | 112
Oc1ccc(-n2ncc(-c3cccc(C(F)(F)F)c3)n2)cc1 [CBK112677] | 99.9
O=C(c1cc[nH]n1)N1CCC2(CC1)Nc1ccccc1-n1cccc12 [CBK283652] | 96.1

SMILES | viability at 28.5 h, 10 µM [%]
Cc1cccc(CC(=O)N2CCC(Cc3cccc(-c4cccs4)c3)(C(N)=O)CC2)c1 [CBK285752] | 107
Cc1sc(NC(=O)CN2CCOCC2)c(C(=O)c2ccccc2)c1C [CBK263346] | 109
COc1ccccc1C1(NC(=O)CCn2cccn2)CCCC1 [CBK283626] | 103
CN(C)CC(=O)NCc1ccc(-c2nc(-c3ccc(C#N)cc3)cnc2N)cc1 [CBK116506] | 92
COC(=O)c1ccc(-c2cn3ccnc3c(NCc3ccncc3)n2)cc1 [CBK066734] | 88.2
Cc1cc(C)n(CCCN(C)Cc2c(C)nc3ccccn23)n1 [CBK281901] | 90
Fc1ccc(-c2ccc(CNCc3ccncc3)o2)cc1 [CBK270158C] | 92.7
Cn1cc(Cl)c(C2CCCCCN2C(=O)c2ccco2)n1 (stereo not shown) [CBK285105] | 96.5
CCCc1cc(C(=O)NC2CCN(Cc3cccc(F)c3)CC2)[nH]n1 [CBK282465] | 100
O=C(NCCN1CCc2ccccc2C1)C1CCCCC1 [CBK305049] | 115
Cc1ccc(NC(=O)c2ccc3c(c2)C(=O)N(c2cccc(N4C(=O)c5ccc(C(=O)Nc6ccc(C)cc6)cc5C4=O)n2)C3=O)cc1 [CBK261198] | 90.8
NS(=O)(=O)c1ccc(Cn2c(=O)[nH]c3ncc(-c4ccco4)nc32)cc1 [CBK064948] | 96.8
Cc1ccc(N(CC(=O)NCC2CCCO2)S(=O)(=O)c2ccc(Cl)cc2)cc1 (stereo not shown) [CBK269039] | 104
Cc1ccc2c(c1)c(C(=O)N1CCn3nc(CO)cc3C1)nn2C [CBK307134] | 104
COc1nccnc1-c1ccccc1Cl [CBK107000] | 100
CCC(SC1=NCCS1)C(=O)Nc1ccc(S(N)(=O)=O)cc1 (stereo not shown) [CBK263027] | 95.3
CC(=O)Nc1ccc(-c2cncc(Nc3ccc(C#N)cc3)n2)cc1 [CBK066009] | 97.5
Cc1nc(S(=O)(=O)Cc2c(F)cccc2Cl)n(CC2CCCO2)c1C (stereo not shown) [CBK304706] | 87.9
CCN(CC)S(=O)(=O)c1ccc2c(c1)CCCN2C(=O)c1ccc(C#N)cc1 [CBK295161] | 85.9
COc1ccccc1CC(=O)NCc1nc(-c2cccc(C)c2)no1 [CBK269336] | 96.7
COc1ccc(-c2cc(=O)[nH]c(SCC(=O)Nc3ccc(C)cc3)n2)cc1 [CBK091867] | 95.8

same assay, conditions: human, hela cells, % viability, bulk resorufin, single well

SMILES | viability at 28.5 h, 10 µM [%]
O=C(Nc1ccc(OC(F)(F)F)cc1)N1CCC2(CC1)OCCO2 [CBK045235] | 91.7
